Results reported in the supplement of paper PMC8967900.

Key:
Test in all cases: selective drug sensitivity score (sDSS, relative to normal bone marrow) (sDSS (score)); higher = more potent and effective on the cell line relative to normal bone marrow cells
Settings in all cases: 72 h
COG-LL-355h = test system: COG-LL-355h
KOPN-8 = test system: KOPN-8
P12-ICHIKAWA = test system: P12-ICHIKAWA
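Note: ALL cell lines in 384-well plates, five doses spanning 10,000-fold, each plate scaled between vehicle and 100 µmol/L benzalkonium chloride controls, sDSS an adapted area-under-curve metric.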

| SMILES | selective drug sensitivity score (COG-LL-355h) | selective drug sensitivity score (KOPN-8) | selective drug sensitivity score (P12-ICHIKAWA) |
| --- | --- | --- | --- |
| Nc1ccccc1NC(=O)c1ccc(CNC(=O)OCc2cccnc2)cc1 [Entinostat] (top concentration 10000 nM) | 1.98 | 11.6 | 7.58 |
| C#Cc1cccc(Nc2ncnc3cc(OCCOC)c(OCCOC)cc23)c1 [Erlotinib] (top concentration 10000 nM) | 3.46 | 7.06 | 1.56 |
| O=C(Nc1nc2cccc(-c3ccc(CN4CCS(=O)(=O)CC4)cc3)n2n1)C1CC1 [Filgotinib] (top concentration 10000 nM) | 0.96 | 5.46 | -1.64 |
| C[C@H]1C=C2C(=O)O[C@H]3CC[C@@H](C1)[C@@]23O [Galiellalactone] (top concentration 25000 nM) | 3.66 | 4.16 | 1.86 |
| CN(C)C1CCN(C(=O)c2ccc(NC(=O)Nc3ccc(-c4nc(N5CCOCC5)nc(N5CCOCC5)n4)cc3)cc2)CC1 [Gedatolisib] (top concentration 1000 nM) | 4.16 | 10.1 | 3.16 |
| Nc1ccn([C@@H]2O[C@H](CO)[C@@H](O)C2(F)F)c(=O)n1 [Gemcitabine] (top concentration 1000 nM) | 7.16 | 26.4 | 15.8 |
| COc1cc2c(cc1-c1c(C)noc1C)ncc1[nH]c(=O)n([C@H](C)c3ccccn3)c12 [I-BET151] (top concentration 10000 nM) | 1.86 | 11.8 | 4.06 |
| O=C1CCc2c(Oc3ccc4c(c3)[C@@H]3[C@H](O4)[C@H]3c3nc4cc(C(F)(F)F)ccc4[nH]3)ccnc2N1 [Lifirafenib (BGB-283)] (top concentration 10000 nM) | 4.78 | 13.1 | 3.18 |
| NC(=O)N1CCC(CC(=O)N2CCC([C@H]3c4ncc(Br)cc4CCc4cc(Cl)cc(Br)c43)CC2)CC1 [Lonafarnib] (top concentration 100000 nM) | 9.34 | 12.8 | 6.74 |
| NC1(c2ccc(-c3nc4ccn5c(=O)[nH]nc5c4cc3-c3ccccc3)cc2)CCC1 [MK-2206] (top concentration 1000 nM) | 5.06 | 3.46 | 1.66 |
| O=C(Nc1cccc(NC(=O)c2cccc(O)c2O)c1)c1cccc(O)c1O [MST-312] (top concentration 10000 nM) | 3.2 | 15.2 | 6.6 |
| CC(=O)O[C@]1(C(C)=O)CC[C@H]2[C@@H]3C=C(C)C4=CC(=O)CC[C@]4(C)[C@H]3CC[C@@]21C [Megestrol_acetate] (top concentration 10000 nM) | 0.52 | 3.02 | 1.82 |
| CO[C@@H]1[C@H](N(C)C(=O)c2ccccc2)C[C@H]2O[C@]1(C)n1c3ccccc3c3c4c(c5c6ccccc6n2c5c31)C(=O)NC4 [Midostaurin] (top concentration 10000 nM) | 4.66 | 12.1 | 9.76 |
| CCCCCCCCCCCCCCCCOP(=O)([O-])OCC[N+](C)(C)C [Miltefosine] (top concentration 100000 nM) | 1.36 | 7.56 | 6.56 |
| Nc1ccccc1NC(=O)c1ccc(CNc2nccc(-c3cccnc3)n2)cc1 [Mocetinostat] (top concentration 10000 nM) | 4.24 | 9.24 | 6.24 |
| CCNC(=O)C[C@@H]1N=C(c2ccc(Cl)cc2)c2cc(OC)ccc2-n2c(C)nnc21 [Molibresib] (top concentration 10000 nM) | 1.7 | 10.6 | 3 |
| Nc1ncnc2c1c(-c1cccc(OCc3ccccc3)c1)cn2[C@H]1C[C@@H](CN2CCC2)C1 [NVP-AEW541] (top concentration 10000 nM) | 5.38 | -2.62 | -2.72 |

| SMILES | selective drug sensitivity score (COG-LL-355h) | selective drug sensitivity score (KOPN-8) | selective drug sensitivity score (P12-ICHIKAWA) |
| --- | --- | --- | --- |
| CN[C@@H](C)C(=O)N[C@H](C(=O)N1CCC[C@H]1c1nc(C(=O)c2ccc(F)cc2)cs1)C1CCCCC1 [NVP-LCL161] (top concentration 25000 nM) | 12.2 | 0.28 | -4.32 |
| CC(=O)c1cc2c(o1)C(=O)c1ccccc1C2=O [Napabucasin] (top concentration 20000 nM) | -0.18 | 3.72 | -1.28 |
| CC1(C)CCC(c2ccc(Cl)cc2)=C(CN2CCN(c3ccc(C(=O)NS(=O)(=O)c4ccc(N[C@H](CCN5CCOCC5)CSc5ccccc5)c(S(=O)(=O)C(F)(F)F)c4)cc3)CC2)C1 [Navitoclax] (top concentration 10000 nM) | 28.9 | 23.2 | 17.6 |
| CC(=O)c1c(C)c2cnc(Nc3ccc(N4CCNCC4)cn3)nc2n(C2CCCC2)c1=O [Palbociclib] (top concentration 10000 nM) | 2.88 | 16.5 | 4.78 |
| COc1ccc(COc2cc3oc(=O)c4cc(C(C)O)ccc4c3cc2OC)cc1 (configuration not stated) [Palomid-529] (top concentration 10000 nM) | -0.24 | 10.3 | -0.14 |
| FC(F)(F)c1ccc(CNc2ccc(Cc3c[nH]c4ncc(Cl)cc34)cn2)cn1 [Pexidartinib] (top concentration 10000 nM) | -1.92 | 0.68 | 0.18 |
| CO[C@H](C(=O)[C@@H](O)[C@@H](C)O)[C@@H]1Cc2cc3cc(O[C@H]4C[C@@H](O[C@H]5C[C@@H](O)[C@H](O)[C@@H](C)O5)[C@@H](O)[C@@H](C)O4)c(C)c(O)c3c(O)c2C(=O)[C@H]1O[C@H]1C[C@@H](O[C@H]2C[C@@H](O[C@H]3C[C@](C)(O)[C@H](O)[C@@H](C)O3)[C@H](O)[C@@H](C)O2)[C@H](O)[C@@H](C)O1 [Plicamycin] (top concentration 10000 nM) | -15.4 | -17.8 | -13.8 |
| Cn1cc(CNCC2CCN(c3ncc(C(=O)NO)cn3)CC2)c2ccccc21 [Quisinostat] (top concentration 1000 nM) | 6.38 | 10.5 | 3.78 |
| CC(C)(C)Cn1c(N)nc2ccc(-c3[nH]c(C(C)(C)C)nc3-c3ccc(F)cc3)nc21 [Ralimetinib] (top concentration 10000 nM) | 7.86 | 4.26 | 1.86 |
| O=C(CCCCCCNC(=O)c1cnc(N(c2ccccc2)c2ccccc2)nc1)NO [Rocilinostat] (top concentration 10000 nM) | 4.84 | 13.8 | 5.34 |
| CN1CCC(CNc2ccc3ncc(-c4cccc(OC(F)(F)F)c4)n3n2)CC1 [SGI-1776] (top concentration 10000 nM) | 1.72 | -0.78 | -2.98 |
| O=C(/C=C\n1cnc(-c2cc(C(F)(F)F)cc(C(F)(F)F)c2)n1)NNc1cnccn1 [Selinexor] (top concentration 10000 nM) | 11.9 | 17.1 | 10.1 |
| Cn1cnc2c(F)c(Nc3ccc(Br)cc3Cl)c(C(=O)NOCCO)cc21 [Selumetinib] (top concentration 10000 nM) | 4.7 | 7 | 0.3 |
| COCC[n+]1c2c(n(Cc3cnccn3)c1C)C(=O)c1ccccc1C2=O [Sepantronium_bromide] (top concentration 10000 nM) | 15.5 | 22.8 | 4.14 |
| O=C(O)c1ccc2c(c1)nc(Nc1cccc(Cl)c1)c1ccncc12 [Silmitasertib] (top concentration 10000 nM) | 6.3 | 11.4 | 0.6 |
| CO[C@H]1C[C@@H]2CC[C@@H](C)[C@@](O)(O2)C(=O)C(=O)N2CCCC[C@H]2C(=O)O[C@H]([C@H](C)C[C@@H]2CC[C@@H](O)[C@H](OC)C2)CC(=O)[C@H](C)/C=C(\C)[C@@H](O)[C@@H](OC)C(=O)[C@H](C)C[C@H](C)/C=C/C=C/C=C/1C [Sirolimus] (top concentration 100 nM) | -0.66 | 17.9 | -2.46 |
| COCCNCc1ccc(-c2cc3nccc(Oc4ccc(NC(=O)C5(C(=O)Nc6ccc(F)cc6)CC5)cc4F)c3s2)nc1 [Sitravatinib] (top concentration 2500 nM) | 2.58 | 8.08 | 0.08 |
